Reference: ChEMBL document CHEMBL3046927, “Synthesis and herbicidal activity of novel 5-chloro-3-fluoro-2-phenoxypyridines with a 1,3,4-oxadiazole ring” (J Pestic Sci, 2011)

Experiments:
[1] = test system: Triticum aestivum; experiment: Phytotoxicity against Triticum aestivum (wheat) plants assessed as crop damage at 125 g ai/ha measured after 3 weeks post compound treatment; assay type: organism-based; conditions: in vivo, 504 h
[2] = test system: Hordeum vulgare; experiment: Phytotoxicity against Hordeum vulgare (barley) plants assessed as crop damage at 125 g ai/ha measured after 3 weeks post compound treatment; assay type: organism-based; conditions: in vivo, 504 h
[3] = test system: Sorghum halepense; experiment: Post-emergence herbicidal activity against Sorghum halepense (Johnson grass) at 125 g ai/ha measured after 3 weeks post compound treatment; assay type: functional
[4] = test system: Avena fatua; experiment: Post-emergence herbicidal activity against Avena fatua at 125 g ai/ha measured after 3 weeks post compound treatment; assay type: functional
[5] = test system: Echinochloa crus-galli; experiment: Post-emergence herbicidal activity against Echinochloa crus-galli (barnyard grass) at 125 g ai/ha measured after 3 weeks post compound treatment; assay type: functional

SMILES | Activity [1] [%] | Activity [2] [%] | Activity [3] [%] | Activity [4] [%] | Activity [5] [%]
C#CCSc1nnc([C@@H](C)Oc2ccc(Oc3ncc(Cl)cc3F)cc2)o1 | 0 | 0 | 80 | 95 | 100
CCOC(=O)Sc1nnc([C@@H](C)Oc2ccc(Oc3ncc(Cl)cc3F)cc2)o1 | 0 | 0 | 40 | 45 | 60
CSc1nnc([C@@H](C)Oc2ccc(Oc3ncc(Cl)cc3F)cc2)o1 | 5 | 15 | 60 | 70 | 80
CC(O)CSc1nnc([C@@H](C)Oc2ccc(Oc3ncc(Cl)cc3F)cc2)o1 (stereo not given in full) | 0 | 0 | 30 | 35 | 40
C[C@@H](Oc1ccc(Oc2ncc(Cl)cc2F)cc1)c1nnc(SCC(=O)O)o1 | 0 | 15 | 45 | 50 | 60
C#CCOC(=O)[C@@H](C)Oc1ccc(Oc2ncc(Cl)cc2F)cc1 [CLODINAFOP PROPARGYL] | 0 | 35 | 80 | 85 | 100
C[C@@H](Oc1ccc(Oc2ncc(Cl)cc2F)cc1)c1nnc(SCC(N)=O)o1 | 0 | 0 | 40 | 40 | 45
CCCCSc1nnc([C@@H](C)Oc2ccc(Oc3ncc(Cl)cc3F)cc2)o1 | 5 | 10 | 55 | 65 | 80
CCCCCSc1nnc([C@@H](C)Oc2ccc(Oc3ncc(Cl)cc3F)cc2)o1 | 0 | 5 | 50 | 55 | 70
C[C@@H](Oc1ccc(Oc2ncc(Cl)cc2F)cc1)c1nnc(SCc2ccccc2)o1 | 0 | 0 | 20 | 25 | 35
CC(Sc1nnc([C@@H](C)Oc2ccc(Oc3ncc(Cl)cc3F)cc2)o1)C(=O)O (stereo not given in full) | 0 | 15 | 60 | 70 | 70
C[C@@H](Oc1ccc(Oc2ncc(Cl)cc2F)cc1)c1nnc(SC(=O)c2ccccc2)o1 | 0 | 0 | 40 | 35 | 55
C[C@@H](Oc1ccc(Oc2ncc(Cl)cc2F)cc1)c1nnc(SCc2ccc(Cl)nc2)o1 | 0 | 0 | 30 | 30 | 40
CCSc1nnc([C@@H](C)Oc2ccc(Oc3ncc(Cl)cc3F)cc2)o1 | 5 | 15 | 60 | 75 | 85
